“And” between values parts separate entries of the source, which are not always exact repeats. Identical values can stand only once. Counter-ions that a name gives are not always drawn.
Experiments:
MCF-7-ADR = assay: MTT cytotoxic activity against drug-resistant tumor cell line; type: cell-based, Human; details: for IC50: NCI/ADR-RES, doxorubicin-resistant human breast cancer cells, 48 hours incubation, MTT, Bliss method
Method: Purpose: Compare differences of cytotoxic activity against drug-resistant tumor cell lines between gemcitabine derivatives (Compounds of examples 1-9 of the present invention) and gemcitabine (known compound, as “comparative example” in the table below).
Materials and Methods: Human breast cancer doxorubicin-resistant cell line MCF-7-ADR was cultured in 1640 medium containing 5% fetal calf serum; gemcitabine and its derivative GI-06 were dissolved in DMSO, frozen preserved at −20° C., and diluted by 1640 medium containing 5% fetal calf serum to the appropriate concentration before they were used. The final concentration of DMSO solution was 0.5%. Activity tests: MCF-7-ADR cells in the logarithmic growth phase were seeded 3×10^3 per well in 96-well culture plates. The medium was changed after incubating for 24 hours by adding test solutions at different concentrations, while the control group was added DMSO medium with concentration of 0.5%, and the cells continued to be incubated for 48 hours. Then the cell activity was assayed by MTT. Inhibition rate (%)=([…](absorbance of the blank control group−absorbance of the administration group)/absorbance of the blank control group)×100%; IC50: calculated by Bliss method.

HCT-116 colon cancer = assay: Growth of subcutaneous transplanted tumor in nude mice bearing HCT-116 colon cancer
Text: Purpose: 4 compounds' influence to the growth of subcutaneous transplanted tumor in nude mice bearing HCT-116 colon cancer
Positive control: Gemcitabine hydrochloride.
Experimental animals: Nude mice, female, 4-5 weeks old, 60 cases.
Cell lines: HCT-116 colon cancer cell.
Modeling: Five mice were inoculated by cell suspension before the experiment, after passaging 4 times in nude mice, prepared model by subcutaneous inoculation using the interpolation block tumor masses.
Route of administration: Gemcitabine hydrochloride group was adminstered by intraperitoneal injection, the rest groups were adminstered by oral gavage.
The adminstered volume: 0.1 ml/10 g
Observation time: Consecutive observation for 15 days after administration, tumor volume was measured twice a week. Stop administration at the 15th day.

A2780 ovarian cancer = assay: Growth of subcutaneous transplanted tumor in nude mice bearing A2780 ovarian cancer
Text: Test sample: GI-06; Positive control: gemcitabine hydrochloride
Experimental animals: nude mice, female, 4-5 weeks old, 40 cases.
Cell lines: A2780 ovarian cancer cell, purchased from Shanghai institute of cell biology.
Grouping: When tumor volume grew to 100 mm^3, nude mice which reached standard were randomly divided into five groups, namely solvent control group, gemcitabine hydrochloride group, GI-06 high, medium, low dosage groups, 6 nude mice in each group.
The administration volume: 0.1 ml/10 g
Frequency of administration: Gemcitabine hydrochloride was respectively adminstered twice in the first and third week (D1, D4, D15, D18), 4 times in total; Each GI-06 dosage group was adminstered once a day, 21 days in total.
Animals were sacrificed on the 22nd day, the tumors were weighed.
Statistical Methods: Excel statistical software package, ANOVA analysis.

[1] = 15 mg/kg oral gavage, five consecutive days a week, 10 times in total
[2] = low dosage 5 mg/kg oral gavage, 12 times in total
[3] = medium dosage 10 mg/kg oral gavage, 12 times in total
[4] = high dosage 12 mg/kg oral gavage once a day, 21 days
[5] = low dosage 4 mg/kg oral gavage once a day, 21 days
[6] = medium dosage 8 mg/kg oral gavage once a day, 21 days
[7] = 160 mg/kg intraperitoneal injection, D1 and D4, twice in total
[8] = 160 mg/kg intraperitoneal injection, D1, D4, D15, D18

Weight (g) D15 (HCT-116 colon cancer; [1])	Compound	IC50 (MCF-7-ADR)	T/C (%) D15 (HCT-116 colon cancer; [1])	Tumor volume (mm^3) D15 (HCT-116 colon cancer; [1])	other results
–	CC(C)(C)c1cnc(CSc2cnc(NC(=O)CCCCCCCC(=O)Nc3ccn([C@@H]4O[C@H](CO)[C@@H](O)C4(F)F)c(=O)n3)s2)o1 [GI-08, N-(5-(((5-(t-butyl)oxazol-2-yl)methyl)thio)thiazol-2-yl)-N′-(1-((2R,4R,5R)-3,3-difluoro-4-hydroxy-5-(hydroxymethyl)tetrahydrofuran-2-yl)-2-oxo-1,2-dihydro-pyrimidin-4-yl)azelamide]	3.29 µM	–	–	–
18.0 ± 1.5 g	CC(C)(C)c1cnc(CSc2cnc(NC(=O)CCCCCC(=O)Nc3ccn([C@@H]4O[C@H](CO)[C@@H](O)C4(F)F)c(=O)n3)s2)o1 [GI-06, N-(5-(((5-(t-butyl)oxazol-2-yl)methyl)thio)thiazol-2-yl)-N′-(1-((2R,4R,5R)-3,3-difluoro-4-hydroxy-5-(hydroxymethyl)tetrahydrofuran-2-yl)-2-oxo-1,2-dihydro-pyrimidin-4-yl)pimelamide]	1.38 µM	12% and 12.64%	208.14 ± 80.53⋆ mm^3	T/C (%) D15 (HCT-116 colon cancer; [2]): 27% and 27.50%; Tumor volume (mm^3) D15 (HCT-116 colon cancer; [2]): 45.172 ± 214.92⋆ mm^3; Weight (g) D15 (HCT-116 colon cancer; [2]): 17.2 ± 0.8 g; T/C (%) D15 (HCT-116 colon cancer; [3]): 13% and 13.09%; Tumor volume (mm^3) D15 (HCT-116 colon cancer; [3]): 222.43 ± 113.48⋆ mm^3; Weight (g) D15 (HCT-116 colon cancer; [3]): 17.5 ± 1.1 g; T/C (%) D22 (A2780 ovarian cancer; [4]): 0.46%; Tumor volume (mm^3) D22 (A2780 ovarian cancer; [4]): 19.83 ± 35.11^⋆ mm^3; T/C (%) D22 (A2780 ovarian cancer; [5]): 39.55%; Tumor volume (mm^3) D22 (A2780 ovarian cancer; [5]): 1757.57 ± 1306.74^⋆ mm^3; T/C (%) D22 (A2780 ovarian cancer; [6]): 2.11%; Tumor volume (mm^3) D22 (A2780 ovarian cancer; [6]): 92.38 ± 159.91^⋆ mm^3; inhibitory activity against MCF-7-ADR proliferation (in words) (MCF-7-ADR; compared with gemcitabine): strongest anti-tumor activity
–	CC(C)(C)c1cnc(CSc2cnc(NC(=O)CCC(=O)Nc3ccn([C@@H]4O[C@H](CO)[C@@H](O)C4(F)F)c(=O)n3)s2)o1 [GI-03, N-(5-(((5-(t-butyl)oxazol-2-yl)methyl)thio)thiazol-2-yl)-N′-(1-((2R,4R,5R)-3,3-difluoro-4-hydroxy-5-(hydroxymethyl)tetrahydrofuran-2-yl)-2-oxo-1,2-dihydro-pyrimidin-4-yl)succinamide]	6.13 µM	–	–	–
–	Nc1ccn([C@@H]2O[C@H](CO)[C@@H](O)C2(F)F)c(=O)n1 [Gemcitabine hydrochloride, reference compound]	–	–	–	Tumor volume (mm^3) D15 (HCT-116 colon cancer; [7]): 99.90 ± 55.92⋆ mm^3; Weight (g) D15 (HCT-116 colon cancer; [7]): 20.0 ± 1.5 g; T/C (%) D15 (HCT-116 colon cancer; 160 mg/kg intraperitoneal injection, D1 and D4, twice in total, hydrochloride): 5.83%; T/C (%) D15 (HCT-116 colon cancer; 160 mg/kg intraperitoneal injection, D1 and D4, twice in total, listed as gemcitabine hydrochloride, hydrochloride): 5.8%; Tumor volume (mm^3) D22 (A2780 ovarian cancer; [8]): 59.97 ± 72.33^⋆ mm^3
18.6 ± 1.4 g	CC(C)(C)c1cnc(CSc2cnc(NC(=O)CCCCCCCCC(=O)Nc3ccn([C@@H]4O[C@H](CO)[C@@H](O)C4(F)F)c(=O)n3)s2)o1 [GI-09, N-(5-(((5-(t-butyl)oxazol-2-yl)methyl)thio)thiazol-2-yl)-N′-(1-((2R,4R,5R)-3,3-difluoro-4-hydroxy-5-(hydroxymethyl)tetrahydrofuran-2-yl)-2-oxo-1,2-dihydro-pyrimidin-4-yl)sebacamide]	2.66 µM	43.26%	724.50 ± 158.19 mm^3	–
–	Nc1ccn([C@@H]2O[C@H](CO)[C@@H](O)C2(F)F)c(=O)n1 [gemcitabine]	> 10 µM	–	–	T/C (%) D22 (A2780 ovarian cancer; [8]): 1.32%
–	CC(C)(C)c1cnc(CSc2cnc(NC(=O)CC(=O)Nc3ccn([C@@H]4O[C@H](CO)[C@@H](O)C4(F)F)c(=O)n3)s2)o1 [GI-02, N-(5-(((5-(t-butyl)oxazol-2-yl)methyl)thio)thiazol-2-yl)-N′-(1-((2R,4R,5R)-3,3-difluoro-4-hydroxy-5-(hydroxymethyl)tetrahydrofuran-2-yl)-2-oxo-1,2-dihydro-pyrimidin-4-yl)malonamide]	4.77 µM	–	–	–
18.1 ± 1.2 g	CC(C)(C)c1cnc(CSc2cnc(NC(=O)CCCCC(=O)Nc3ccn([C@@H]4O[C@H](CO)[C@@H](O)C4(F)F)c(=O)n3)s2)o1 [GI-05, N-(5-(((5-(t-butyl)oxazol-2-yl)methyl)thio)thiazol-2-yl)-N′-(1-((2R,4R,5R)-3,3-difluoro-4-hydroxy-5-(hydroxymethyl)tetrahydrofuran-2-yl)-2-oxo-1,2-dihydro-pyrimidin-4-yl)adipamide]	2.46 µM	56.14%	935.14 ± 130.33 mm^3	–
19.9 ± 1.2 g	CC(C)(C)c1cnc(CSc2cnc(NC(=O)CCCC(=O)Nc3ccn([C@@H]4O[C@H](CO)[C@@H](O)C4(F)F)c(=O)n3)s2)o1 [GI-04, N-(5-(((5-(t-butyl)oxazol-2-yl)methyl)thio)thiazol-2-yl)-N′-(1-((2R,4R,5R)-3,3-difluoro-4-hydroxy-5-(hydroxymethyl)tetrahydrofuran-2-yl)-2-oxo-1,2-dihydro-pyrimidin-4-yl)glutaramide]	3.15 µM	60.9%	1008.78 ± 174.29 mm^3	–
–	CC(C)(C)c1cnc(CSc2cnc(NC(=O)C(=O)Nc3ccn([C@@H]4O[C@H](CO)[C@@H](O)C4(F)F)c(=O)n3)s2)o1 [GI-01, N-(5-(((5-(t-butyl)oxazol-2-yl)methyl)thio)thiazol-2-yl)-N′-(1-((2R,4R,5R)-3,3-difluoro-4-hydroxy-5-(hydroxymethyl)tetrahydrofuran-2-yl)-2-oxo-1,2-dihydro-pyrimidin-4-yl)oxamide]	5.56 µM	–	–	–
–	CC(C)(C)c1cnc(CSc2cnc(NC(=O)CCCCCCC(=O)Nc3ccn([C@@H]4O[C@H](CO)[C@@H](O)C4(F)F)c(=O)n3)s2)o1 [GI-07, N-(5-(((5-(t-butyl)oxazol-2-yl)methyl)thio)thiazol-2-yl)-N′-(1-((2R,4R,5R)-3,3-difluoro-4-hydroxy-5-(hydroxymethyl)tetrahydrofuran-2-yl)-2-oxo-1,2-dihydro-pyrimidin-4-yl)suberamide]	3.55 µM	–	–	–
